Measurements published in publication PMC12427341, “Phytochemical-Mediated Modulation of Doramectin Pharmacology in Sheep: Exploring the Cinnamaldehyde–Pink Grapefruit Combination” (Animals : an Open Access Journal from MDPI, 2025).
Several values for one entry are separate records, joined by “and”; a condition that tells them apart may be missing. Equal values may be shown once. Marks after values point to notes of the source that are not given here.

Experiments:
Ascaris suum = test system: Ascaris suum; set-up: method as in PMID 26420588; settings: pigs; cited from earlier work
Syphacia muris = test system: Syphacia muris; set-up: method as in doi:10.2478/acve-2018-0036; settings: rats infected with Syphacia muris; cited from earlier work
[1] = rats; cited from earlier work
[2] = test system: resistant gastrointestinal nematodes; experiment: Fecal egg count reduction test (FECRT), trial 2: DRM alone or with CNM–PGF or LPM; type: in vivo, lambs
Procedure: (§1) An in vivo assay was performed to evaluate the pharmacokinetics and the efficacy of DRM orally administered alone or in combination with CNM–PGF and LPM against resistant gastrointestinal nematodes in lambs. For the trial, 27 naturally infected Corriedale and Texel crossbreed lambs (average weight, 33 kg) were used. On day −1, all lambs were checked for EPG and tagged, and the individual body weights were recorded. As in the previous assay (Trial 2.1), the selection of the animals was based on EPG. […] Lambs were housed in a paddock with access to hay, commercial concentrates, and water ad libitum. Lambs were assigned into three experimental groups. Group A received DRM (0.2 mg/kg) as an oral emulsion (n = 7). Lambs in groups B and C received an emulsion containing DRM (a single dose of 0.2 mg/kg) and either LPM (n = 7) (three oral doses of 0.3 mg/kg, every 24 h) or CNM–PGF (n = 7) (three oral doses containing 72 and 64 mg/kg of CNM and PGF, respectively, every 24 h). Group D served as the untreated control (n = 6). As appropriate, the final concentrations of the active ingredients within the formulations were DRM 5%, CNM 18%, PGF 16%, LPM 30%. The compounds were diluted in Tween-80 11%, sesame oil 1–30%, and distilled water. The formulations were prepared using a similar method to that used in the previously described trial (Trial 2.1).
(§2) For the plasma disposition of DRM, jugular blood samples (2 mL) were collected into heparinized vacutainer tubes before treatment and at 3, 6, 9, 24, 30, 48, and 54 h and 3, 4, 7, 10, and 14 days post treatment. Blood samples were centrifuged at 2000× g for 15 min; the recovered plasma was kept in labeled vials and stored at −20 °C until the analysis of DRM by high performance liquid chromatography (HPLC). The effect of each treatment was indirectly estimated by collecting fecal samples on days −1 and 14 of administration to evaluate the FECR.
(§3) Data are expressed as mean ± standard deviation (SD). Rho123 transport across the ileum is presented as ng of Rho123 in the receptor side of the chamber. The plasma concentration versus time curves obtained after treatment of each animal were fitted with the PK Solutions 2.0 software (summit Research Services, Ashland, OH, USA) software. Pharmacokinetic parameters were determined using a noncompartmental model method. The evaluation of the FECR was calculated according to the following formula [33], with modifications: FECR %=100 × (1−T2/T1) where T1 and T2 are the arithmetic mean EPG counts in the treated group on days 0 and 14, respectively. The 90% confidence intervals were calculated following the method of reference.
The statistical analysis was performed using Prism 8.0 (GraphPad Software, San Diego, CA, USA). ANOVA or Kruskal–Wallis tests were used for the statistical comparison. […]

P-glycoprotein [3] = test system: P-glycoprotein
Procedure: (§6) A series of ex vivo experiments were performed to evaluate the interaction of DRM, CNM–PGF, or LPM with ABC transporters. […] For this assay, sheep ileum samples were obtained from a local slaughterhouse (Ayacucho, Argentina). […] The incubation process was started immediately after obtaining the tissue. During the preparation and assembly process, intestinal tissue was always maintained between 0–4 °C. The tissue was then mounted vertically in a diffusion chamber with an internal surface area of 0.8 cm^2. […] Both the mucosal (M) and serosal (S) sides were filled with 7 and 5 mL of prewarmed and oxygenated Krebs buffer, respectively. […] During preparation, chambers were preincubated to slough off any dead cells, and during this period, the tissue were exposed in the donor side to the presence or absence of 5 µM of DRM; 1.5 mM of CNM–PGF; or 50 µM of LPM, a well-established P-gp modulator, which was used as a positive control [25, 26]. After a 20 min equilibration period, Krebs buffer was completely replaced with fresh medium fortified with 0.5 µM of Rho123 as a substrate to the M or S side of the chambers for measuring the absorption and secretion processes, respectively. Thus, Rho123 was incubated alone (control assays) or in the presence of DRM, CNM–PGF, or LPM. Tissues were incubated for 4 h, and each hour, aliquots of 1 mL were collected from the receptor side and replaced with fresh Krebs buffer.
(§7) Samples from the receptor side (1 mL) were mixed with 2 mL of distillated water to reach a final volume of 3 mL.
(§8) Values of unidirectional transepithelial effective permeability (Peff) (cm.s^−1) were calculated for each chamber according to the following equation: Peff=dC/dT1/A.C0
(§9) The appearance rate on the receiving compartment is dC/dT, calculated from the slope of the concentration versus time curve over a time period of 4 h (Rho123); A is the exposed area (cm^2) of the tissue in the Ussing chamber (0.8 cm^2), and C0 is the initial drug concentration (ng/mL) in the donor compartment. The efflux ratio (ER) was calculated as follows: ER=mean Peff S−M/mean Peff M−S
(§10) The intestinal absorption is represented by permeability in the M–S direction. The S–M side can also be used to measure permeability, in this case characterizes intestinal secretion. A higher Peff S–M compared to the Peff M–S is indicative of carrier-mediated transport.

Trichostrongylus spp. [4] = experiment: Efficacy by nematode genus (coprocultures), trial 1; type: in vivo; settings: day 14, oral, lambs n = 9
Procedure: (§4) The coadministration of DRM and CNM–PGF, both by an oral emulsion, was evaluated in lambs. The trial involved 35 Corriedale and Texel crossbred lambs (mean body weight, 26 kg) naturally infected with resistant gastrointestinal nematodes and was conducted in a sheep experimental unit (Estación Experimental INTA, Balcarce, Argentina). There, a parasite control program based on the intensive use of antiparasitic drugs has been implemented for many years, leading to anthelmintic resistance to MLs and benzimidazoles. Animals were selected based on worm egg per gram counts (EPG), with an average EPG count of 2102 ± 1662. Animals were kept in a paddock and fed hay ad libitum, together with commercial concentrate feed. All animals had free access to water. Lambs were assigned to four experimental groups sorted by EPG count. Group A received an emulsion containing DRM (single dose of 0.2 mg/kg) (n = 9). Group B received CNM–PGF orally as an emulsion (two doses of 100 mg/kg every 24 h) (n = 9). Lambs of Group C were treated with an emulsion containing both DRM and CNM–PGF on the first day, and the second day, they received an emulsion of CNM–PGF only (n = 9). Group D included untreated lambs (n = 8). The selected phytochemical dose was based on previous in vivo studies with other monoterpenes, such as thymol and carvone, which were administered to lambs at doses ranging from 100 to 150 mg/kg, without adverse effects. CNM–PGF was formulated as an emulsion composed of Tween-80/sesame oil (3:1) 20% at a final concentration of 15% CNM and 15% PGF. Briefly, the CNM–PGF emulsion was prepared using the high-energy ultrasonic method. CNM and PGF were mixed with sesame oil to form the oil phase. The oil phase was added dropwise to the aqueous phase containing Tween-80 and distillated water while stirring, and the emulsion formed was then subjected to ultrasonic emulsification for 15 min. […] To evaluate the effect of the treatment, individual fecal samples from all the lambs were collected on days −1, 7, and 14 of treatment, and the fecal egg count reduction (FECR) was calculated. […]

Teladorsagia spp. [5] = experiment: as above; type: in vivo; settings: day 14, oral, lambs n = 9
Procedure: as §4

Cooperia spp. = experiment: as above; type: in vivo; settings: day 14, oral, lambs n = 9
Procedure: as §4

Haemonchus spp. [6] = experiment: Efficacy by nematode genus, trial 2; type: in vivo, Haemonchus contortus; settings: day 14, oral, lambs n = 7
From the text: (§5) Lambs were assigned into three experimental groups. […] Group D served as the untreated control (n = 6).

[7] = Plasma pharmacokinetics of DRM after oral administration alone or with CNM–PGF or LPM; settings: DRM 0.2 mg/kg oral emulsion; sheep n = 7; mean ± SD
Procedure: as §1, §2, §3

Trichostrongylus spp. [8] = experiment: Efficacy by nematode genus, trial 2; type: in vivo; settings: day 14, oral, lambs n = 7
From the text: as §5

Teladorsagia spp. [9] = experiment: Efficacy by nematode genus, trial 2; type: in vivo; settings: day 14, oral, lambs n = 7
From the text: as §5

[10] = set-up: method as in PMID 11106995; settings: sheep; cited from earlier work
P-glycoprotein [11] = experiment: Ex vivo intestinal transport of rhodamine 123 across sheep ileum (diffusion chamber model); settings: 4 h; for Peff M–S of Rho123 in the presence of the modulator: 0.5 µM Rho123, 5 µM DRM, 1.5 mM CNM–PGF or 50 µM LPM
Procedure: as §6, §7, §8, §9, §10

Haemonchus spp. [12] = experiment: Efficacy by nematode genus (coprocultures), trial 1; type: in vivo, Haemonchus contortus; settings: day 14, oral, lambs n = 9
Procedure: as §4, with “8).” for “8). The selected phytochemical dose was based on previous in vivo studies with other monoterpenes, such as thymol and carvone, which were administered to lambs at doses ranging from 100 to 150 mg/kg, without adverse effects. CNM–PGF was formulated as an emulsion composed of Tween-80/sesame oil (3:1) 20% at a final concentration of 15% CNM and 15% PGF. Briefly, the CNM–PGF emulsion was prepared using the high-energy ultrasonic method. CNM and PGF were mixed with sesame oil to form the oil phase. The oil phase was added dropwise to the aqueous phase containing Tween-80 and distillated water while stirring, and the emulsion formed was then subjected to ultrasonic emulsification for 15 min.”

[13] = test system: resistant gastrointestinal nematodes; experiment: Fecal egg count reduction test (FECRT), trial 1: DRM, CNM–PGF and their combination as oral emulsions; type: in vivo, lambs
Procedure: The coadministration of DRM and CNM–PGF, both by an oral emulsion, was evaluated in lambs. The trial involved 35 Corriedale and Texel crossbred lambs (mean body weight, 26 kg) naturally infected with resistant gastrointestinal nematodes and was conducted in a sheep experimental unit (Estación Experimental INTA, Balcarce, Argentina). […] Animals were kept in a paddock and fed hay ad libitum, together with commercial concentrate feed. All animals had free access to water. Lambs were assigned to four experimental groups sorted by EPG count. Group A received an emulsion containing DRM (single dose of 0.2 mg/kg) (n = 9). Group B received CNM–PGF orally as an emulsion (two doses of 100 mg/kg every 24 h) (n = 9). Lambs of Group C were treated with an emulsion containing both DRM and CNM–PGF on the first day, and the second day, they received an emulsion of CNM–PGF only (n = 9). Group D included untreated lambs (n = 8). […] CNM–PGF was formulated as an emulsion composed of Tween-80/sesame oil (3:1) 20% at a final concentration of 15% CNM and 15% PGF. Briefly, the CNM–PGF emulsion was prepared using the high-energy ultrasonic method. CNM and PGF were mixed with sesame oil to form the oil phase. The oil phase was added dropwise to the aqueous phase containing Tween-80 and distillated water while stirring, and the emulsion formed was then subjected to ultrasonic emulsification for 15 min. The same steps were performed for the DRM + CNM–PGF emulsion, the synthetic compound was added to the oil phase, and their final concentration was 0.03%. […] To evaluate the effect of the treatment, individual fecal samples from all the lambs were collected on days −1, 7, and 14 of treatment, and the fecal egg count reduction (FECR) was calculated. The coprocultures were prepared with 10 g of feces from a pool of each experimental group obtained on days −1 and 14. The nematode genera and species were identified through the third-stage larvae recovered from the coprocultures.
as §3
The statistical analysis was performed using Prism 8.0 (GraphPad Software, San Diego, CA, USA). ANOVA or Kruskal–Wallis tests were used for the statistical comparison. Tukey or Dunn tests were used for post hoc multiple comparisons. The egg counts obtained for each treatment on Day 14 were compared with the corresponding baseline counts on Day 0 using the Wilcoxon matched-pairs signed rank test. Differences were considered statistically significant at p < 0.05.

C. elegans = test system: C. elegans; set-up: method as in doi:10.1155/2020/1740938; settings: in vitro exposure; cited from earlier work
[14] = test system: gastrointestinal nematodes; settings: cited from earlier work; for Efficacy of single phytochemicals: sheep, low to moderate efficacy
P-glycoprotein [15] = experiment: in vitro; settings: Corriedale and Texel crossbreed, sheep
Procedure: as §6, §7, §8, §9, §10

[16] = day 14, lower-upper confidence limit

O=C/C=C/c1ccccc1 [CNM, cinnamaldehyde]
In vivo anthelmintic effect (Ascaris suum): failed to exert any in vivo anthelmintic effect
In vivo efficacy (Syphacia muris): no in vivo efficacy was observed
Oral LD50 [1]: approximately 2220 mg/kg

CO[C@H]1C[C@H](O[C@H]2[C@H](C)O[C@@H](O[C@@H]3/C(C)=C/C[C@@H]4C[C@@H](C[C@]5(C=C[C@H](C)[C@@H](C6CCCCC6)O5)O4)OC(=O)[C@@H]4C=C(C)[C@@H](O)[C@H]5OC/C(=C\C=C\[C@@H]3C)[C@]54O)C[C@@H]2OC)O[C@@H](C)[C@@H]1O [DRM, doramectin]
Mean egg per gram (EPG) counts (±SD), Day 14 ([2]; 14 days after oral DRM 0.2 mg/kg, LPM three doses of 0.3 mg/kg, CNM–PGF three doses of 72 and 64 mg/kg, every 24 h, lambs n = 7): 694 ± 944 EPG and 694 ± 944 ^aB EPG
Mean egg per gram (EPG) counts (±SD), Day 0 ([2]; baseline before treatment, lambs n = 7, mean ± SD): 1586 ± 984 ^aA EPG
FECR (LCL-UCL), 90% confidence interval [2, 16]: (9–88) %
FECR (%) ([2]; day 14, oral emulsion, lambs n = 7): 56%
Efflux ratio (ER) of Rho123 in the presence of the modulator (P-glycoprotein [3]): 4.66
Efficacy (%) against Trichostrongylus spp. (Trichostrongylus spp. [4]): 100%
Efficacy (%) against Teladorsagia spp. (Teladorsagia spp. [5]): 100%
Efficacy (%) against Cooperia spp. (Cooperia spp.): 100%
Efficacy (%) against Haemonchus spp. (Haemonchus spp. [6]): 0%
AUC0–t of DRM in plasma [7]: 90.84 ± 33.61 ^a ng d/mL
Cmax of DRM in plasma [7]: 25.76 ± 10.01 ^a ng/mL
T max of DRM in plasma [7]: 0.93 ± 0.47 ^a days
T ½ el (elimination half-life) of DRM [7]: 2.19 ± 0.41 ^a days
Efficacy (%) against Trichostrongylus spp. (Trichostrongylus spp. [8]): 100%
Efficacy (%) against Teladorsagia spp. (Teladorsagia spp. [9]): 82%
Absolute oral bioavailability [10]: 25%
Peff M–S of Rho123 in the presence of the modulator (P-glycoprotein [11]): 3.83 ± 1.87 ×10⁻⁶ cm/s
Efficacy (%) against Haemonchus spp. (Haemonchus spp. [12]): 0%
Mean egg per gram (EPG) counts (±SD), Day 14 ([13]; 14 days after oral administration, DRM 0.2 mg/kg single dose, CNM–PGF two doses of 100 mg/kg every 24 h, lambs n = 9): 910 ± 2548 EPG and 910 ± 2548 ^abB EPG
Mean egg per gram (EPG) counts (±SD), Day 0 ([13]; baseline before treatment, lambs n = 9, mean ± SD): 2716 ± 2641 ^aA EPG
Prevalence of egg count negativization (percentage of animals with an egg count of zero) ([13]; day 14): 40%
FECR (LCL-UCL), 90% confidence interval [13, 16]: (0–98) %
FECR (%) ([13]; day 14, oral emulsion, lambs n = 9): 66%

CN(C)C(=O)C(CCN1CCC(O)(c2ccc(Cl)cc2)CC1)(c1ccccc1)c1ccccc1 [LPM, loperamide]
Peff M–S of Rho123 in the presence of the modulator (P-glycoprotein [11]): 3.84 ± 1.02 ×10⁻⁶ cm/s

C=C(C)[C@H]1CC=C(C)CC1 [Limonene, limonene]
Survival rate of C. elegans (C. elegans): 30%
FECR ([14]; long-term administration through feed, coadministered with a single dose of ivermectin, adult nematode number unaffected): 82%

COC(=O)c1ccccc1-c1c2ccc(=N)cc-2oc2cc(N)ccc12 [Rho123, rhodamine 123]
efflux ratio at 4 h, 0.5 µM (P-glycoprotein [15]): 10.3
Rho123 absorption, Peff M–S (P-glycoprotein [11]; 0.5 µM Rho123 alone (control)): 1.39 ± 0.343 ×10⁻⁶ cm/s
Rho123 secretion, Peff S–M (P-glycoprotein [11]; 0.5 µM Rho123 alone (control)): 11.1 ± 3.64 ×10⁻⁶ cm/s

C=C(C)C1CC=C(C)C(=O)C1 (stereo not shown) [carvone]
Efficacy of single phytochemicals [14]: 0–47%

Cc1ccc(C(C)C)c(O)c1 [thymol]
Efficacy of single phytochemicals [14]: 0–47%
